According to ChEMBL document CHEMBL1201862, “PubChem BioAssay data set” (2004):
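Briefly, cells in 96-well plates were exposed to five compound concentrations for 48 h, and endpoints were estimated by linear interpolation. GI50 = concentration required for 50% inhibition of growth.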 Calls of active or inactive are those of the source. Rule as the data show it: active = GI50 up to about 1.1 µM and inactive = higher.

Legend:
Experiment in all cases: growth of human tumour cells (NCI), 48 h
T47D = test system: T47D
SNB-19 = test system: SNB-19
SW-620 = test system: SW-620
MDA-MB-435 = test system: MDA-MB-435
ACHN = test system: ACHN
OVCAR-4 = test system: OVCAR-4
HCC 2998 = test system: HCC 2998
A549 = test system: A549
NCI-H226 = test system: NCI-H226
M14 = test system: M14
KM12 = test system: KM12
SF-295 = test system: SF-295
Hs-578T = test system: Hs-578T
Malme-3M = test system: Malme-3M
SK-MEL-5 = test system: SK-MEL-5
SK-MEL-28 = test system: SK-MEL-28
UACC-257 = test system: UACC-257
UO-31 = test system: UO-31
IGROV-1 = test system: IGROV-1
SR = test system: SR

| Compound | GI50 (T47D) | GI50 (SNB-19) | GI50 (SW-620) | GI50 (MDA-MB-435) | GI50 (ACHN) | GI50 (OVCAR-4) | GI50 (HCC 2998) | GI50 (A549) | GI50 (NCI-H226) | GI50 (M14) | GI50 (KM12) | GI50 (SF-295) | GI50 (Hs-578T) | GI50 (Malme-3M) | GI50 (SK-MEL-5) | GI50 (SK-MEL-28) | GI50 (UACC-257) | GI50 (UO-31) | GI50 (IGROV-1) | GI50 (SR) |
| --- | --- | --- | --- | --- | --- | --- | --- | --- | --- | --- | --- | --- | --- | --- | --- | --- | --- | --- | --- | --- |
| CCCOc1ccc(/C=C/C2=[N+](CCO)CCO2)cc1 | > 100 µM (inactive) | > 100 µM (inactive) | > 100 µM (inactive) | > 100 µM (inactive) | > 100 µM (inactive) | > 100 µM (inactive) | > 100 µM (inactive) | > 100 µM (inactive) | > 100 µM (inactive) | > 100 µM (inactive) | > 100 µM (inactive) | > 100 µM (inactive) | > 100 µM (inactive) | > 100 µM (inactive) | > 100 µM (inactive) | > 100 µM (inactive) | > 100 µM (inactive) | > 100 µM (inactive) | > 100 µM (inactive) | > 100 µM (inactive) |
| CC(=O)OC1C[C@@H](C)C2(CC(c3ccoc3)OC2=O)C2CCC(O)C3(CO3)C12CO (some centres undefined) | > 100 µM (inactive) | > 100 µM (inactive) | > 100 µM (inactive) | > 100 µM (inactive) | > 100 µM (inactive) | > 100 µM (inactive) | > 100 µM (inactive) | > 100 µM (inactive) | > 100 µM (inactive) | > 100 µM (inactive) | > 100 µM (inactive) | > 100 µM (inactive) | > 100 µM (inactive) | > 100 µM (inactive) | > 100 µM (inactive) | > 100 µM (inactive) | > 100 µM (inactive) | > 100 µM (inactive) | > 100 µM (inactive) | > 100 µM (inactive) |
| O=S(=O)(O)c1ccc2c(/N=N\c3cccc4ccccc34)c(O)c(S(=O)(=O)O)cc2c1 | > 100 µM (inactive) | > 100 µM (inactive) | > 100 µM (inactive) | > 100 µM (inactive) | > 100 µM (inactive) | > 100 µM (inactive) | > 100 µM (inactive) | > 100 µM (inactive) | > 100 µM (inactive) | > 100 µM (inactive) | > 100 µM (inactive) | > 100 µM (inactive) | > 100 µM (inactive) | > 61.7 µM (inactive) | > 100 µM (inactive) | > 100 µM (inactive) | > 100 µM (inactive) | > 100 µM (inactive) | > 100 µM (inactive) | > 48.6 µM (inactive) |
| O=C(c1ccccc1)c1sc2c(=O)c(C(=O)c3ccccc3)c(C(=O)c3ccccc3)sc2c(=O)c1C(=O)c1ccccc1 | 47.5 µM (inactive) | 55.3 µM (inactive) | 21.8 µM (inactive) | 27.1 µM (inactive) | 51.9 µM (inactive) | > 100 µM (inactive) | 19.5 µM (inactive) | > 100 µM (inactive) | 82.4 µM (inactive) | 31.5 µM (inactive) | > 100 µM (inactive) | 96.6 µM (inactive) | 77.6 µM (inactive) | 75.7 µM (inactive) | 32 µM (inactive) | > 100 µM (inactive) | > 100 µM (inactive) | 5.97 µM (inactive) | 15.6 µM (inactive) | 4.88 µM (inactive) |
| CN(C)c1ccc(/C=C/c2ccnc3ccccc23)cc1N | 0.547 µM (active) | 14.4 µM (inactive) | 12.4 µM (inactive) | 2.55 µM (inactive) | 10.3 µM (inactive) | 10.5 µM (inactive) | 10.1 µM (inactive) | 6.81 µM (inactive) | 11.4 µM (inactive) | 10.6 µM (inactive) | 7.85 µM (inactive) | 11 µM (inactive) | 15.3 µM (inactive) | 10.9 µM (inactive) | 2.82 µM (inactive) | 13 µM (inactive) | 2.42 µM (inactive) | 7.55 µM (inactive) | – | 2.21 µM (inactive) |
| COc1ccc2c(-c3cc4ccccc4o3)cc(=O)oc2c1 | > 55 µM (inactive) | 26.1 µM (inactive) | > 100 µM (inactive) | > 100 µM (inactive) | 39.4 µM (inactive) | 22.8 µM (inactive) | > 55.1 µM (inactive) | 44 µM (inactive) | 58.5 µM (inactive) | 75.7 µM (inactive) | 98.2 µM (inactive) | 22.9 µM (inactive) | 11.4 µM (inactive) | 71.1 µM (inactive) | 40.1 µM (inactive) | 53.7 µM (inactive) | 54.8 µM (inactive) | 15 µM (inactive) | 41.3 µM (inactive) | > 100 µM (inactive) |
| CC(=O)Nc1cccc(N2C(=O)/C(=C\c3cccc(Oc4ccccc4)c3)SC2c2ccccc2)c1 (centres undefined) | 78.7 µM (inactive) | > 100 µM (inactive) | 54.6 µM (inactive) | 33.9 µM (inactive) | 99.8 µM (inactive) | 53.5 µM (inactive) | > 100 µM (inactive) | 94.8 µM (inactive) | > 100 µM (inactive) | > 100 µM (inactive) | 80.7 µM (inactive) | > 100 µM (inactive) | 60 µM (inactive) | > 100 µM (inactive) | 33.5 µM (inactive) | 79.1 µM (inactive) | > 100 µM (inactive) | 47.9 µM (inactive) | – | 17.2 µM (inactive) |
| C[n+]1c2ccccc2n2c3ccccc3c(NCCCn3ccnc3)c(C#N)c21 | 1.61 µM (inactive) | 4.01 µM (inactive) | 1.49 µM (inactive) | 2.23 µM (inactive) | 3.48 µM (inactive) | 1.61 µM (inactive) | 1.36 µM (inactive) | 3.92 µM (inactive) | 2.85 µM (inactive) | 2.26 µM (inactive) | 2.01 µM (inactive) | 3.74 µM (inactive) | 1.64 µM (inactive) | 1.9 µM (inactive) | 3.09 µM (inactive) | 3.48 µM (inactive) | 3.85 µM (inactive) | 7.21 µM (inactive) | – | 1.27 µM (inactive) |
| O=C1/C(=C\c2cccc(Oc3ccccc3)c2)SC(c2ccccc2)N1Cc1ccccc1 (centres undefined) | 26.2 µM (inactive) | 24.7 µM (inactive) | 38.3 µM (inactive) | 23.3 µM (inactive) | 52.8 µM (inactive) | 31.6 µM (inactive) | 30.3 µM (inactive) | 29.4 µM (inactive) | 22.6 µM (inactive) | 22.4 µM (inactive) | 24.5 µM (inactive) | 35.3 µM (inactive) | 29.1 µM (inactive) | 22.2 µM (inactive) | 14.8 µM (inactive) | 29.6 µM (inactive) | 26.6 µM (inactive) | 25.7 µM (inactive) | – | 23.9 µM (inactive) |
| O=C1N(c2ccccc2)N=C2c3ccncc3C3=NN(c4ccccc4)C(=O)C123 (centres undefined) | 2.26 µM (inactive) | > 100 µM (inactive) | 2.53 µM (inactive) | 4.36 µM (inactive) | > 43.6 µM (inactive) | > 63 µM (inactive) | 6.68 µM (inactive) | > 32.7 µM (inactive) | > 100 µM (inactive) | – | 0.556 µM (active) | 4.37 µM (inactive) | > 100 µM (inactive) | > 100 µM (inactive) | 7.55 µM (inactive) | > 22 µM (inactive) | 27.1 µM (inactive) | 2.35 µM (inactive) | > 51.9 µM (inactive) | 79.6 µM (inactive) |
| O=C1COc2cc(N3CCN(c4cccc(C(F)(F)F)c4)CC3)ccc2N1 | > 100 µM (inactive) | > 100 µM (inactive) | > 100 µM (inactive) | > 100 µM (inactive) | > 100 µM (inactive) | > 100 µM (inactive) | > 100 µM (inactive) | > 100 µM (inactive) | > 100 µM (inactive) | > 100 µM (inactive) | > 100 µM (inactive) | > 100 µM (inactive) | > 100 µM (inactive) | – | > 100 µM (inactive) | > 100 µM (inactive) | > 100 µM (inactive) | > 100 µM (inactive) | > 100 µM (inactive) | > 100 µM (inactive) |
| CN1CC2=C(N=C(S)NC2c2ccccc2)/C(=C/c2ccccc2)C1 (centres undefined) | 44.8 µM (inactive) | > 100 µM (inactive) | 71.1 µM (inactive) | 46.8 µM (inactive) | 52.6 µM (inactive) | – | 29.3 µM (inactive) | 30.3 µM (inactive) | > 100 µM (inactive) | 25.4 µM (inactive) | 25.6 µM (inactive) | 17.9 µM (inactive) | 40.6 µM (inactive) | 30.1 µM (inactive) | 27.7 µM (inactive) | 27.6 µM (inactive) | 91.6 µM (inactive) | 60.5 µM (inactive) | 24.5 µM (inactive) | 30.4 µM (inactive) |
| CCOC(=O)c1c(NC(=O)Nc2ccccc2)c(C(N)=O)c2n1CCCCC2 | > 100 µM (inactive) | > 100 µM (inactive) | > 100 µM (inactive) | > 100 µM (inactive) | > 100 µM (inactive) | > 100 µM (inactive) | > 100 µM (inactive) | – | > 100 µM (inactive) | > 100 µM (inactive) | > 100 µM (inactive) | > 100 µM (inactive) | > 100 µM (inactive) | – | > 100 µM (inactive) | > 100 µM (inactive) | > 100 µM (inactive) | > 100 µM (inactive) | > 100 µM (inactive) | > 100 µM (inactive) |
| CCOC(=O)[C@@H]1ON2OC(OC3CCCC3(c3ccccc3)c3ccccc3)C(OC(C)=O)[C@H]3OC(=O)[C@@H]1C32 (some centres undefined) | 46.6 µM (inactive) | > 100 µM (inactive) | > 100 µM (inactive) | 51.1 µM (inactive) | 29.9 µM (inactive) | – | 35.1 µM (inactive) | 47.2 µM (inactive) | > 100 µM (inactive) | 95.7 µM (inactive) | > 100 µM (inactive) | 31.6 µM (inactive) | > 100 µM (inactive) | – | 42.9 µM (inactive) | > 100 µM (inactive) | 52.5 µM (inactive) | 36.4 µM (inactive) | > 100 µM (inactive) | > 100 µM (inactive) |
